target: hGYS1 enzyme (recombinant hGYS1/GN1 protein) (Homo sapiens (Human), UniProt P13807); test: GYS1 coupled enzyme assay (PK/LDH); type: biochemical; conditions: hGYS1/GN1 50 nM, UDP-Glucose 0.8 mM, G6P 1 mM; geometric mean of at least 2 runs
From the text: The GYS1 coupled enzyme assay is a kinetic biochemical assay that indirectly quantifies the rate of glycogen synthesis by coupling the conversion of GYS1 substrate UDP-glucose into UDP with downstream enzymatic reactions. UDP is released from UDP-glucose as glucose monomers are linked into the growing glycogen strand by GYS1. The coupled assay then proceeds with pyruvate kinase utilizing UDP and phospho(enol)pyruvate (PEP) to form pyruvate. Lactate dehydrogenase then converts pyruvate and NADH into lactate and NAD+. Oxidation of NADH to NAD+ can be measured continuously with a plate reader by quantifying the decrease in NADH absorbance at 340 nm over time.
Compounds that inhibit the hGYS1 enzyme and, subsequently, the downstream conversion of NADH to NAD+, were tested using assay ready plates (black, clear bottom 384 well plates) in a final DMSO reaction volume of 2.5% DMSO. The Assay Buffer contained 50 mM Tris pH 7.5, 2 mM MgCl2, and 100 mM KCl. Fresh stocks of BSA at a final concentration of 0.02% and TCEP at 1 mM were added before splitting buffer into hGYS1 buffer and substrate buffer. To the hGYS1 buffer, rabbit liver glycogen was added at a final concentration of 0.2% glycogen. Glucose-6-Phosphate was added at 1 mM, recombinant hGYS1/GN1 protein was added at 50 nM to the substrate buffer, phosphoenolpyruvate (PEP) was added at 2 mM, UDP-Glucose was added at 0.8 mM, NADH) was added at 0.6 mM, and Pyruvate Kinase/Lactate Dehydrogenase was added at 20 units/mL. The reaction was initiated by mixing hGYS1 buffer and substrate buffer at a 1:1 ratio. Both buffers were plated using a liquid dispensing device with hGYS1 buffer plated first followed by the substrate buffer. Plates were spun briefly to eliminate air bubbles and are immediately read in continuous mode at an absorbance of 340 nm, for 10 time points in one-minute increments, for a total of 10 minutes. The slope from these 10 time points was normalized to the positive and negative control wells. The duplicate % inhibition values are then averaged and fit to a Hill equation for dose response according to the Levenberg-Marquardt algorithm with the Hill equation maximum set to 100 and the minimum set to 0.
Unless otherwise specified, IC50 values are reported as the geometric mean of at least 2 assay runs on separate days. Each run represents the average of a technical replicate, where each compound was assayed twice in the same plate. […] A superscript “#” symbol in Table 2 indicates results from a single assay run.

Sequence of hGYS1 enzyme (recombinant hGYS1/GN1 protein) (P13807 whole entry): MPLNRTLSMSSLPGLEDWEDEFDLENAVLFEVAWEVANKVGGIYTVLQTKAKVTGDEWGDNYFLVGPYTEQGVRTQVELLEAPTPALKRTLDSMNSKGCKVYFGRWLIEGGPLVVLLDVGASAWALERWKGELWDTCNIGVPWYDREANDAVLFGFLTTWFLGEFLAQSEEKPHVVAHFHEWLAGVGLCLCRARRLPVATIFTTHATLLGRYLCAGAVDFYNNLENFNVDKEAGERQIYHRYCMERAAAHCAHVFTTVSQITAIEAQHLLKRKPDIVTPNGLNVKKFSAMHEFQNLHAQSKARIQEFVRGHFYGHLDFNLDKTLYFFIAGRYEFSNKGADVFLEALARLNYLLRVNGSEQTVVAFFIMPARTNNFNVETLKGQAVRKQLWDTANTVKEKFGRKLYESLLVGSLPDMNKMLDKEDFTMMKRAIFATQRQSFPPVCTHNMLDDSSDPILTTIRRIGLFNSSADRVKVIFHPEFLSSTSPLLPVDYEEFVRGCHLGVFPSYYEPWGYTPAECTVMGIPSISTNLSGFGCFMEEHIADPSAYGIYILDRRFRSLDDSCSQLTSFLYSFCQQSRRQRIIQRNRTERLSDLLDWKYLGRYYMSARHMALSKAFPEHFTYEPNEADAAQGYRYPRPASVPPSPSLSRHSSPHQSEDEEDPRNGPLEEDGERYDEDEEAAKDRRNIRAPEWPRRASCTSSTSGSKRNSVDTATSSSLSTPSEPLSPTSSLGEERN
Sequence of hGYS1 enzyme (recombinant hGYS1/GN1 protein) (P46976 whole entry partner): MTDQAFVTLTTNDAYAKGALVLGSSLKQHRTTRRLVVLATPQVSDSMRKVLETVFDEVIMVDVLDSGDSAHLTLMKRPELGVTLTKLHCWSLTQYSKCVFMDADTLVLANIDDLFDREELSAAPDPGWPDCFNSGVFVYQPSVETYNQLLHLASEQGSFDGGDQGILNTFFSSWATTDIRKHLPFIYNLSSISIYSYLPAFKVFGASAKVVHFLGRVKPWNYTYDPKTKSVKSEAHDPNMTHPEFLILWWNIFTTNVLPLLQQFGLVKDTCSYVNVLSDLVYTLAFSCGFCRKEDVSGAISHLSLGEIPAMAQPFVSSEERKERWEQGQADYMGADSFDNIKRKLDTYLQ

Row | Compound | IC50 [nM]
1 | CC(C)c1ccc([C@@H](NC(=O)[C@@H]2C[C@@H](F)CN2C(=O)Cc2cc[nH]n2)c2ccccc2)cc1 [Compound 19, (2S,4R)-4-fluoro-N-[(S)-phenyl[4-(propan-2-yl)phenyl]methyl]-1-[2-(1H-pyrazol-5-yl)acetyl]pyrrolidine-2-carboxamide] | 47
2 | CC(C)c1ccc([C@@H](NC(=O)[C@@H]2C[C@@H](F)CN2C(=O)Cn2cc(Cl)cn2)c2ccccc2)cc1 [Compound 20, (2S,4R)-1-[2-(4-chloro-1H-pyrazol-1-yl)acetyl]-4-fluoro-N-[(S)-phenyl[4-(propan-2-yl)phenyl]methyl]pyrrolidine-2-carboxamide] | 46
3 | Cc1ncncc1C(=O)N1C[C@H](F)C[C@H]1C(=O)N[C@@H](c1ccccc1)c1ccc(C(C)C)cc1 [Compound 30, (2S,4R)-4-fluoro-1-(4-methylpyrimidine-5-carbonyl)-N-[(S)-phenyl[4-(propan-2-yl)phenyl]methyl]pyrrolidine-2-carboxamide] | 947
4 | CC(C)c1ccc([C@@H](NC(=O)[C@@H]2C[C@@H](F)CN2C(=O)Cc2ccncc2)c2ccccc2)cc1 [Compound 39, (2S,4R)-4-fluoro-N-[(S)-phenyl[4-(propan-2-yl)phenyl]methyl]-1-[2-(pyridin-4-yl)acetyl]pyrrolidine-2-carboxamide] | 50
5 | CC(C)c1ccc([C@@H](NC(=O)[C@@H]2C[C@@H](F)CN2C(=O)CCc2cnc[nH]2)c2ccccc2)cc1 [Compound 45, (2S,4R)-4-fluoro-1-[3-(1H-imidazol-5-yl)propanoyl]-N-[(S)-phenyl[4-(propan-2-yl)phenyl]methyl]pyrrolidine-2-carboxamide] | 58
6 | CC(C)c1ccc([C@@H](NC(=O)[C@@H]2C[C@@H](F)CN2C(=O)CCc2ncc[nH]2)c2ccccc2)cc1 [Compound 47, (2S,4R)-4-fluoro-1-[3-(1H-imidazol-2-yl)propanoyl]-N-[(S)-phenyl[4-(propan-2-yl)phenyl]methyl]pyrrolidine-2-carboxamide] | 138
7 | CC(C)c1ccc([C@@H](NC(=O)[C@@H]2C[C@@H](F)CN2C(=O)CCc2cccnc2)c2ccccc2)cc1 [Compound 66, (2S,4R)-4-fluoro-N-[(S)-phenyl[4-(propan-2-yl)phenyl]methyl]-1-[3-(pyridin-3-yl)propanoyl]pyrrolidine-2-carboxamide] | 82
8 | CC(C)c1ccc([C@@H](NC(=O)[C@@H]2C[C@@H](F)CN2C(=O)c2cccn3c(=O)[nH]nc23)c2ccccc2)cc1 [Compound 74, (2S,4R)-4-fluoro-1-{3-oxo-2H,3H-[1,2,4]triazolo[4,3-a]pyridine-8-carbonyl}-N-[(S)-phenyl[4-(propan-2-yl)phenyl]methyl]pyrrolidine-2-carboxamide] | 705
9 | CC(C)c1ccc([C@@H](NC(=O)[C@@H]2C[C@@H](F)CN2C(=O)c2cc(-c3ccncc3)[nH]n2)c2ccccc2)cc1 [Compound 78, (2S,4R)-4-fluoro-N-[(S)-phenyl[4-(propan-2-yl)phenyl]methyl]-1-[5-(pyridin-4-yl)-1H-pyrazole-3-carbonyl]pyrrolidine-2-carboxamide] | 953
10 | COCc1oncc1C(=O)N1C[C@H](F)C[C@H]1C(=O)N[C@@H](c1ccccc1)c1ccc(C(C)C)cc1 [Compound 82, (2S,4R)-4-fluoro-1-[5-(methoxymethyl)-1,2-oxazole-4-carbonyl]-N-[(S)-phenyl[4-(propan-2-yl)phenyl]methyl]pyrrolidine-2-carboxamide] | 504
11 | CC(C)c1ccc([C@@H](NC(=O)[C@@H]2C[C@@H](F)CN2C(=O)c2ccc3c(c2)NC(=O)CC3)c2ccccc2)cc1 [Compound 97, (2S,4R)-4-fluoro-1-(2-oxo-1,2,3,4-tetrahydroquinoline-7-carbonyl)-N-[(S)-phenyl[4-(propan-2-yl)phenyl]methyl]pyrrolidine-2-carboxamide] | 712
12 | CC(=O)N1CC(Oc2ccc(C(=O)N3C[C@H](F)C[C@H]3C(=O)N[C@@H](c3ccccc3)c3ccc(C(C)C)cc3)cc2)C1 [Compound 112, (2S,4R)-1-{4-[(1-acetylazetidin-3-yl)oxy]benzoyl}-4-fluoro-N-[(S)-phenyl[4-(propan-2-yl)phenyl]methyl]pyrrolidine-2-carboxamide] | 854

Next, values leading:

Row | IC50 [nM] | Compound
13 | 415 | CC(C)c1ccc([C@@H](NC(=O)[C@@H]2C[C@@H](F)CN2C(=O)c2cnco2)c2ccccc2)cc1 [Compound 12, (2S,4R)-4-fluoro-1-(1,3-oxazole-5-carbonyl)-N-[(S)-phenyl[4-(propan-2-yl)phenyl]methyl]pyrrolidine-2-carboxamide]
14 | 495 | CCc1nc(C(=O)N2C[C@H](F)C[C@H]2C(=O)N[C@@H](c2ccccc2)c2ccc(C(C)C)cc2)co1 [Compound 42, (2S,4R)-1-(2-ethyl-1,3-oxazole-4-carbonyl)-4-fluoro-N-[(S)-phenyl[4-(propan-2-yl)phenyl]methyl]pyrrolidine-2-carboxamide]
15 | 91 | CC(C)c1ccc([C@@H](NC(=O)[C@@H]2C[C@@H](F)CN2C(=O)C(C)n2cccn2)c2ccccc2)cc1 (stereo partly drawn) [Compound 43, (2S,4R)-4-fluoro-N-[(S)-phenyl[4-(propan-2-yl)phenyl]methyl]-1-[2-(1H-pyrazol-1-yl)propanoyl]pyrrolidine-2-carboxamide]
16 | 789 | CCn1nccc1C(=O)N1C[C@H](F)C[C@H]1C(=O)N[C@@H](c1ccccc1)c1ccc(C(C)C)cc1 [Compound 53, (2S,4R)-1-(1-ethyl-1H-pyrazole-5-carbonyl)-4-fluoro-N-[(S)-phenyl[4-(propan-2-yl)phenyl]methyl]pyrrolidine-2-carboxamide]
17 | 47 | Cc1cc(CC(=O)N2C[C@H](F)C[C@H]2C(=O)N[C@@H](c2ccccc2)c2ccc(C(C)C)cc2)[nH]n1 [Compound 54, (2S,4R)-4-fluoro-1-[2-(3-methyl-1H-pyrazol-5-yl)acetyl]-N-[(S)-phenyl[4-(propan-2-yl)phenyl]methyl]pyrrolidine-2-carboxamide]
18 | 375 | CC(=O)N(C)C(C)C(=O)N1C[C@H](F)C[C@H]1C(=O)N[C@@H](c1ccccc1)c1ccc(C(C)C)cc1 (stereo partly drawn) [Compound 71, (2S,4R)-4-fluoro-1-[2-(N-methylacetamido)propanoyl]-N-[(S)-phenyl[4-(propan-2-yl)phenyl]methyl]pyrrolidine-2-carboxamide]
19 | 472 | CC(=O)Nc1cc(C(=O)N2C[C@H](F)C[C@H]2C(=O)N[C@@H](c2ccccc2)c2ccc(C(C)C)cc2)ccn1 [Compound 72, (2S,4R)-1-(2-acetamidopyridine-4-carbonyl)-4-fluoro-N-[(S)-phenyl[4-(propan-2-yl)phenyl]methyl]pyrrolidine-2-carboxamide]
20 | 313 | CC(Cn1ccnc1)C(=O)N1C[C@H](F)C[C@H]1C(=O)N[C@@H](c1ccccc1)c1ccc(C(C)C)cc1 (stereo partly drawn) [Compound 79, (2S,4R)-4-fluoro-1-[3-(1H-imidazol-1-yl)-2-methylpropanoyl]-N-[(S)-phenyl[4-(propan-2-yl)phenyl]methyl]pyrrolidine-2-carboxamide]
21 | 318 | CC(Cn1cccn1)C(=O)N1C[C@H](F)C[C@H]1C(=O)N[C@@H](c1ccccc1)c1ccc(C(C)C)cc1 (stereo partly drawn) [Compound 80, (2S,4R)-4-fluoro-1-[2-methyl-3-(1H-pyrazol-1-yl)propanoyl]-N-[(S)-phenyl[4-(propan-2-yl)phenyl]methyl]pyrrolidine-2-carboxamide]
22 | 439 | CC(C)c1ccc([C@@H](NC(=O)[C@@H]2C[C@@H](F)CN2C(=O)C(C)(C)c2ccccn2)c2ccccc2)cc1 [Compound 92, (2S,4R)-4-fluoro-1-[2-methyl-2-(pyridin-2-yl)propanoyl]-N-[(S)-phenyl[4-(propan-2-yl)phenyl]methyl]pyrrolidine-2-carboxamide]
23 | 1080 | CC(C)CNC(=O)C(=O)N1C[C@H](F)C[C@H]1C(=O)N[C@@H](c1ccccc1)c1ccc(C(C)C)cc1 [Compound 111, (2S,4R)-4-fluoro-1-{[(2-methylpropyl)carbamoyl]carbonyl}-N-[(S)-phenyl[4-(propan-2-yl)phenyl]methyl]pyrrolidine-2-carboxamide]
24 | 1040 | CC(C)c1ccc([C@@H](NC(=O)[C@@H]2C[C@@H](F)CN2C(=O)C(=O)C2CC2)c2ccccc2)cc1 [Compound 113, (2S,4R)-1-(2-cyclopropyl-2-oxoacetyl)-4-fluoro-N-[(S)-phenyl[4-(propan-2-yl)phenyl]methyl]pyrrolidine-2-carboxamide]
25 | 493 | CC(C)c1ccc([C@@H](NC(=O)[C@@H]2C[C@@H](F)CN2C(=O)C(=O)N(C)C)c2ccccc2)cc1 [Compound 115, (2S,4R)-1-[(dimethylcarbamoyl)carbonyl]-4-fluoro-N-[(S)-phenyl[4-(propan-2-yl)phenyl]methyl]pyrrolidine-2-carboxamide]

Reference: patent US11814367B2, “Inhibitors of glycogen synthase 1 (GYS1) and methods of use thereof” (Maze Therapeutics, Inc., priority 2021, dated 2023)
